Assay results: article PMC8430704, “Novel Sulfonamide-Based Carbamates as Selective Inhibitors of BChE” (International Journal of Molecular Sciences, 2021)

Key:
[1] = target: T1, BChE from equine serum (Equus caballus, UniProt P81908); assay: BChE inhibition, modified Ellman's method; type: biochemical; conditions: for IC50: IC50 (µM) BChE, eqBChE, modified Ellman's method, 25 °C, PBS pH 7.4, mean ± SD, n = 3; for SI (selectivity index) = IC50 (AChE)/IC50 (BChE): value over 1 = more potent inhibition of BChE; for fold higher inhibitory activity against BChE than rivastigmine: ratio of BChE IC50 vs RIV
T1 construct: butyrylcholinesterase from equine serum; from tissue; host or cells: equine serum
Protocol: Based on IC50 values for both cholinesterases, selectivity indexes (SI) as the ratio of IC50 for AChE/IC50 for BChE to quantify the preference for BChE were calculated.
(§1) The ability of all synthesized derivatives to inhibit eeAChE (acetylcholinesterase from electric eel, Electrophorus electricus) and eqBChE (butyrylcholinesterase from equine serum) was determined in vitro using the modified Ellman´s method. […] Ellmanʼs method is widely used for measuring cholinesterase activity and the efficiency of cholinesterase inhibitors. The principle of this simple method is the determination of the SH and -S-S- groups. The activity of the cholinesterase is measured indirectly by quantifying the concentration of 2-nitro-5-sulfanylbenzoic acid ion formed in the reaction between 5,5′-dithiobis-2-nitrobenzoic acid (DTNB) and thiocholine (i.e., the product of the acetylthiocholine hydrolysis catalysed by cholinesterase).
(§2) All studied compounds were dissolved in DMSO (concentration 0.01 M) and diluted in demineralized water (concentration 0.001 M). The ability of the studied compounds to inhibit eeAChE and eqBChE was determined using modified Ellman´s method at 25 °C in the presence of phosphate buffered saline (PBS, 0.1 M, pH 7.4) in a glass cuvette with 1 cm optical path. The enzyme activity in the total reaction mixture (2 mL) was 0.2 U/mL; the concentration of acetylthiocholine (ATCh) or butyrylthiocholine (BTCh) was 40 μM; and the concentration of DTNB was 0.1 mM for all reactions. The inhibitory activity of the studied derivatives was evaluated based on the ratio v0/vi (v0 is the rate of ATCh or BTCh hydrolysis in the absence of the inhibitor, vi is the rate of ATCh or BTCh hydrolysis in the presence of the inhibitor). The IC50 value was obtained from the dependence v0/vi on the concentration of the tested compound (inhibitor).
(§3) The determination of v0 was done as follows. Into the cuvette, PBS (0.1 M, pH 7.4), DTNB, and ATCh (BTCh) were placed. The enzymatic reaction was started by adding the enzyme. […] The measurement was performed at least in triplicate, and average v0 was determined.
(§4) Then, vi (for the given concentration of inhibitor) was determined. Into the cuvette, DTNB, ATCh (BTCh), a chosen volume of the suitably diluted inhibitor (to achieve the required concentration of inhibitor in the total reaction mixture), and a certain volume of PBS (to achieve the total volume of the reaction mixture 2 mL after adding the enzyme) were placed. The enzymatic reaction was started by adding the enzyme. […] Five different concentrations of the inhibitor were used, and each measurement was performed at least in duplicate.

[2] = target: T2, AChE from electric eel (Electrophorus electricus, UniProt O42275); assay: AChE inhibition, modified Ellman's method; type: biochemical
T2 construct: from tissue
Protocol: as §1, §2, §3, §4

[3] = target: T1, BChE from equine serum; assay: Reactivation (decarbamylation) of inhibited BChE; type: biochemical; conditions: BChE from equine serum inhibited ≥ 95%, dilution into PBS
Protocol: The procedure is described in Section 3.4.
Monitoring of enzyme reactivation was performed as follows. […] The excess inhibitor was removed by dilution into PBS. Samples were withdrawn at successive time points and assayed to measure recovery of enzymatic activity (Ellman´s method was used). […] All experiments were performed in duplicate at least.

[4] = target: T1, BChE from equine serum; assay: Carbamylation of BChE (progressive inhibition kinetics); type: biochemical; conditions: from kobs vs. inhibitor concentration
Protocol: The evaluation of BChE carbamylation was performed on the basis of the measured dependences % residual activity vs. time in the presence of appropriate concentration of inhibitor. […] These dependences were evaluated by non-linear regression and the pseudo-first-order rate constants kobs for progressive inhibition at several inhibitor concentrations were obtained.
The decrease in enzyme activity over time due to inhibitor binding was monitored by the Ellman´s method. Pursuant the procedure described in Carletti [86], the determination was performed subsequently: the reaction mixture containing PBS (0.1 M, pH 7.4), BChE and chosen inhibitor in an appropriate concentration was prepared and intensively stirred. In given times DTNB and BTCh were added to the sample withdrawn from stirred reaction mixture, quickly mixed and absorbance was measured. Consequently, the enzyme activity was determined. Based on knowledge of enzyme activity in the absence of the inhibitor (i.e., 100% activity), the percentages of residual activity in presence of the inhibitor were calculated. Then the dependence of percentage of residual activity vs. time was constructed [87]. By nonlinear regression of these dependences the values of kobs were obtained and subsequently rate constants for carbamylation were calculated. All experiments were performed in duplicate at least.

[5] = Preliminary stability test (decomposition in buffer, HPLC)
Protocol: pH (6, 7.4, 8). Measurement of these degradations was performed by HPLC in reverse phase
acetonitrile/water (98:2). The compound was stirred in a tempered buffer (37 °C) of appropriate
pH and a sample was taken for HPLC analysis at a specified time.

[6] = test system: human BChE; conditions: cited from earlier work
[7] = test system: human BChE; conditions: cited from earlier work; remark: listed apart in the source

T1 sequence (P81908 whole entry): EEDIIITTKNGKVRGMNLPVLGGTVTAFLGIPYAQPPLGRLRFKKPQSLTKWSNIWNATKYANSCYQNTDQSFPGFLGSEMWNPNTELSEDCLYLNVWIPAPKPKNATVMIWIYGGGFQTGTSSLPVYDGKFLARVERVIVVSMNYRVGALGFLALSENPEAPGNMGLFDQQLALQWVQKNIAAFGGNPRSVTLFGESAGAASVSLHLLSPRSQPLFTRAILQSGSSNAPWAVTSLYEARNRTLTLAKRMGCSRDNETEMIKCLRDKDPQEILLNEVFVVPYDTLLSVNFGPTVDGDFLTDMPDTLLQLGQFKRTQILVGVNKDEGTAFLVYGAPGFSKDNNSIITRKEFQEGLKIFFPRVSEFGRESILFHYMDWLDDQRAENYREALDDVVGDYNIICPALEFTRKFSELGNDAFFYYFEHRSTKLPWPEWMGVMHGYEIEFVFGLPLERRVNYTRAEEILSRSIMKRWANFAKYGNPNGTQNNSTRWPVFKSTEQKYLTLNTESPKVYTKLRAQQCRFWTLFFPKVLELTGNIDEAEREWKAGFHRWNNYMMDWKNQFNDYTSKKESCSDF
T2 sequence (O42275 24-633): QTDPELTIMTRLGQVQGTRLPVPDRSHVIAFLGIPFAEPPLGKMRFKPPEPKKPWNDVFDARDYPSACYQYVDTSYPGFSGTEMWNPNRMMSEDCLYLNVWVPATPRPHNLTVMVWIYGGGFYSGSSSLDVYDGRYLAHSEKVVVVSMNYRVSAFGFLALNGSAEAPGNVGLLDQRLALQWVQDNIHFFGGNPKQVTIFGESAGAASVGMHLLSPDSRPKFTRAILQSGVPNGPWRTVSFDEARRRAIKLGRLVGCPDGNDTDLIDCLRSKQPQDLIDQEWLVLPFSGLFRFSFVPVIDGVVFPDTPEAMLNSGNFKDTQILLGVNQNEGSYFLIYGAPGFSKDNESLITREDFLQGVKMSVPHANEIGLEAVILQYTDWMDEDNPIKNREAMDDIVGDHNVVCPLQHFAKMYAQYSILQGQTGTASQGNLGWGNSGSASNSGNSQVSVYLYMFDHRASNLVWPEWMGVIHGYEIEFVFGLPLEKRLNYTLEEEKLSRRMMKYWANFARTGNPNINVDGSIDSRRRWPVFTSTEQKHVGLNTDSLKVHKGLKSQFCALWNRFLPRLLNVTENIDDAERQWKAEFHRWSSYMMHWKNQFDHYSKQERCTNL

Row | Compound | IC50 [1] [µM] | SI (selectivity index) = IC50 (AChE)/IC50 (BChE) [1] | IC50 [2] [µM] | further results
1 | C[C@@H](CS(=O)(=O)NCc1ccccc1)NC(=O)OCc1ccccc1 [Compound 5a, Benzyl [(2S)-1-(benzylsulfamoyl)propan-2-yl]carbamate] | 100 ± 4.26 | 0.90 | 90.6 ± 5.7 | –
2 | O=C(N[C@@H](Cc1ccccc1)CS(=O)(=O)NCc1ccccc1)OCc1ccccc1 [Compound 5b, Benzyl [(2S)-1-(benzylsulfamoyl)-3-phenylpropan-2-yl]carbamate] | 86.1 ± 1.91 | 0.89 | 76.9 ± 1.52 | –
3 | CC(C)C[C@@H](CS(=O)(=O)NCc1ccccc1)NC(=O)OCc1ccccc1 [Compound 5c, Benzyl [(2S)-1-(benzylsulfamoyl)-4-methylpentan-2-yl]carbamate] | 8.52 ± 0.32 | – | 91.8 ± 4.89 | fold higher inhibitory activity against BChE than rivastigmine [1]: approximately 5 fold
4 | CC(C)C[C@@H](CS(=O)(=O)Nc1ccccc1)NC(=O)OCc1ccccc1 [Compound 5d, Benzyl [(2S)-4-methyl-1-(phenylsulfamoyl)pentan-2-yl]carbamate] | 16.54 ± 0.1 | 3.36 | 55.6 ± 1.38 | –
5 | CCCNS(=O)(=O)C[C@H](CC(C)C)NC(=O)OCc1ccccc1 [Compound 5e, Benzyl [(2S)-4-methyl-1-(propylsulfamoyl)pentan-2-yl]carbamate] | 58.9 ± 1.88 | 1.84 | 108 ± 2.39 | –
6 | CC(C)C[C@@H](CS(=O)(=O)NCCc1ccccc1)NC(=O)OCc1ccccc1 [Compound 5f, Benzyl {(2S)-4-methyl-1-[(2-phenylethyl)sulfamoyl]pentan-2-yl}carbamate] | 15.3 ± 0.38 | 7.50 | 115 ± 6.22 | –
7 | O=C(N[C@@H](Cc1ccccc1)CS(=O)(=O)Nc1ccc(Cl)c(Cl)c1)OCc1ccccc1 [Compound 5g, Benzyl {(2S)-1-[(3,4-dichlorophenyl)sulfamoyl]-3-phenylpropan-2-yl}carbamate] | 12.6 ± 0.31 | 6.25 | 78.83 ± 0.63 | –
8 | O=C(N[C@@H](Cc1ccccc1)CS(=O)(=O)Nc1ccc2c(c1)OCO2)OCc1ccccc1 [Compound 5h, Benzyl [(2S)-1-(1,3-benzodioxol-5-ylsulfamoyl)-3-phenylpropan-2-yl]carbamate] | 11.5 ± 0.28 | 5.32 | 61.39 ± 0.47 | –
9 | O=C(N[C@@H](Cc1ccccc1)CS(=O)(=O)N[C@@H]1CCCO1)OCc1ccccc1 [Compound 5i, Benzyl {(2S)-1-phenyl-3-[(2S)-tetrahydrofuran-2-ylsulfamoyl]propan-2-yl}carbamate] | 112 ± 3.41 | 0.55 | 61.7 ± 1.47 | –
10 | CC(C)C[C@@H](CS(=O)(=O)NCc1ccc(Cl)cc1)NC(=O)OCc1ccccc1 [Compound 5j, Benzyl {(2S)-1-[(4-chlorobenzyl)sulfamoyl]-4-methylpentan-2-yl}carbamate] | 6.57 ± 0.12 | – | 67.47 ± 0.37 | reactivation of BChE after 24 h [3]: 37%; fold higher inhibitory activity against BChE than rivastigmine [1]: approximately 5 fold; apparent bimolecular rate constant (ki) of carbamylation [4]: 1.084 ± 0.0535 M⁻¹ s⁻¹
11 | COc1ccccc1CNS(=O)(=O)C[C@H](CC(C)C)NC(=O)OCc1ccccc1 [Compound 5k, Benzyl {(2S)-1-[(2-methoxybenzyl)sulfamoyl]-4-methylpentan-2-yl}carbamate] | – | – | 150 ± 3.82 | starting material remaining ([5]; buffer pH 6, 37 °C, after 6 hrs): 13%; substance decomposed in the first hour ([5]; buffer pH 6, 37 °C, first hour): 75%; starting material remaining ([5]; buffer pH 7.4, 37 °C, 48 hours): 36%; starting material remaining ([5]; buffer pH 8, 37 °C, 4 hours): 5%
12 | CC(C)C[C@@H](CS(=O)(=O)NCc1ccc(F)c(F)c1)NC(=O)OCc1ccccc1 [Compound 5l, Benzyl {(2S)-1-[(3,4-difluorobenzyl)sulfamoyl]-4-methylpentan-2-yl}carbamate] | 55.6 ± 1.38 | 1.67 | 92.9 ± 2.47 | –
13 | CC(C)C[C@@H](CS(=O)(=O)NCc1ccco1)NC(=O)OCc1ccccc1 [Compound 5m, Benzyl {(2S)-1-[(furan-2-ylmethyl)sulfamoyl]-4-methylpentan-2-yl}carbamate] | 19.99 ± 0.17 | – | 131.8 ± 0.42 | –
14 | CC(C)C[C@@H](CS(=O)(=O)Nc1ccc(Cl)c(Cl)c1)NC(=O)OCc1ccccc1 [Compound 5n, Benzyl {(2S)-1-[(3,4-dichlorophenyl)sulfamoyl]-4-methylpentan-2-yl}carbamate] | 13.5 ± 0.51 | 7.04 | 95.1 ± 2.77 | –
15 | CCN(C)C(=O)Cl [EMCC, N,N-ethylmethylcarbaryl chloride] | – | – | – | reactivation of human BChE upon dilution ([6]; upon dilution): complete and rapid reactivation
16 | CCN(C)C(=O)Oc1cccc([C@H](C)N(C)C)c1 [RIV, rivastigmine] | – | – | – | reactivation of human BChE after 24 h ([6]; 24 h): < 10%; bimolecular rate constant for the carbamylation [7]: 1500 M⁻¹ s⁻¹
